This passage reports molar enthalpy results from the NIST ThermoML archive (doi:10.1016/j.jct.2019.01.012).

The data set is described as follows: molar enthalpy of vaporization or sublimation. As to conditions: 298.15 K; Liquid; Static calorimetry.

± gives the expanded uncertainty stated by the source.

For the molecule `O=C1C=CCC1` [2-cyclopenten-1-one], the molar enthalpy came to 52.4 ± 1.5 kJ/mol.

Take `CC1=CC(=O)CC1` [3-methyl-2-cyclopenten-1-one]: the molar enthalpy turned out to be 52.4 ± 1.4 kJ/mol.
